Data: US4745111A, “Anti-anxiety, anti-agitation, and anti-sleepless states 4-substituted 10-cyanomethylenethieno-[4,3-e]benzoazepine derivatives, compositions, and methods of use therefor” (priority 1985, dated 1988)
Entries after “also recorded” stand apart in the source; their conditions may differ. Read-outs that look alike come from different tables or passages of the source.

Columns and labels:
[1] = test system: orientation hypermotility; experiment: Sedative action in the mouse (inhibition of orientation hypermotility); assay type: in vivo, mouse (female NMRI); conditions: for ED50: Mus musculus, 0.5 h, female NMRI mice, oral, dose giving 50% reduction in orientation hypermotility, measured from 30 min after administration over 30 min; for Sedative action (in words): comparison of cis/trans isomers and with comparative substance
Description: The substances are administered orally to 4-8 groups of female NMRI mice, each group comprising 3 mice. The orientation hypermotility induced by a new environment was determined photoelectrically 30 minutes after administration of the substances, over a period of 30 minutes.
The ED50 %, i.e. the dose which produces a 50% reduction in orientation hypermotility compared to placebo-treated control animals, is determined.

apomorphine = experiment: Apomorphine antagonistic action (antidopaminergic action), climbing in mice; assay type: in vivo, mouse; conditions: for ED50: Mus musculus, po, apomorphine 1.21 mg/kg s.c., dose reducing climbing scores by 50% vs control, read-out: Antimonaminergic action: Apomorphine antagonism, mouse, ED50 %; for Antimonaminergic action (in words): apomorphine (mouse) and L-5HTP (rat) antagonism together, comparison of isomers and with comparative substance
Description: In mice kept in a suitable environment (e.g. a wiremesh cage), apomorphine (1.21 mg/kg, administered subcutaneously) leads to increased climbing. The animals are observed for 30 minutes after administration of apomorphine, and the climbing is quantified every 2 minutes with the aid of a score. The test substances are administered perorally 60 minutes […] administration of apomorphine. The ED50 % is calculated as the dose which reduces the scores by 50% compared with a control group.

L-5HTP = experiment: L-5-HTP antagonism (serotonin antagonism) in the rat; assay type: in vivo; conditions: po, read-out: Antimonaminergic action: L-5HTP antagonism, rat, ED50 %
Description: In the rat (316 mg/kg, administered intraperitoneally), L-5-[…] (L-5HTP), a prodrug for serotonin, leads to signs of agitation, such as shaking of the head, tremors and movements of the front feet. The animals are observed for 1 hour after administration of L-5HTP, and the symptoms occurring are quantified every 10 minutes with the aid of a score. The test substances are administered perorally 1 hour before L-5HTP. The ED50 % is calculated as the dose which produces on average a 50% reduction in the scores observed for a control group.

physostigmin = experiment: Anticholinergic action (protection from physostigmin lethality) in the mouse; assay type: in vivo, mouse (female NMRI); conditions: for ED50: Mus musculus, po, read-out: Anticholinergic action, mouse, ED50 %; for Anticholinergic action (in words): comparison of isomers and with comparative substance
Description: A lethal dose (0.825 mg/kg) of physostigmin is administered subcutaneously to groups of 10 female NMRI mice. The test substances are administered orally 30 minutes before administration of physostigmin. The ED50 % is determined as the dose of substance which protects 50% of the animals from death due to physostigmin.

[2] = L-5HTP 316 mg/kg i.p., substance p.o. 1 hour before, 50% reduction in scores

SMILES | ED50 [1] [mg/kg] | ED50 (apomorphine) [mg/kg] | ED50 (L-5HTP; [2]) [mg/kg] | ED50 (physostigmin) [mg/kg] | Sedative action (in words) [1] | Antimonaminergic action (in words) (apomorphine) | Anticholinergic action (in words) (physostigmin) | ED50 (L-5HTP) [mg/kg]
CN1CCN(C2=Nc3ccccc3C(=CC#N)c3cscc32)CC1 (mixture of isomers) [Example 1, cis,trans-10-cyanomethylene-4-(4-methylpiperazin-1-yl)-thieno[4,3-e]benzoazepine] | 0.89 | 1.7 | 0.77 | 15.8 | – | – | – | –
CN1CCN(C2=Nc3cc(Cl)ccc3C(=CC#N)c3cscc32)CC1 (mixture of isomers) [Example 3, cis,trans-7-chloro-10-cyanomethylene-4-(4-methylpiperazin-1-yl)-thieno[4,3-e]benzoazepine] | 0.89 | ~2 | 0.8 | > 21.5 | – | – | – | –
CN1CCN(C2=Nc3cc(F)ccc3C(=CC#N)c3cscc32)CC1 (mixture of isomers) [Example 4, cis,trans-7-fluoro-10-cyanomethylene-4-(4-methylpiperazin-1-yl)-thieno[4,3-e]benzoazepine] | 3.27 | ~2 | 1 | ~21 | – | – | – | –
Cc1ccc2c(c1)N=C(N1CCN(C)CC1)c1cscc1C2=CC#N (mixture of isomers) [Example 5, cis,trans-7-methyl-10-cyanomethylene-4-(4-methylpiperazin-1-yl)-thieno[4,3-e]benzoazepine] | 3.75 | ~2.1 | 1.4 | > 21.5 | – | – | – | –
CCN1CCN(C2=Nc3ccccc3C(=CC#N)c3cscc32)CC1 (mixture of isomers) [Example 9, cis,trans-10-cyanomethylene-4-(4-ethylpiperazin-1-yl)-thieno[4,3-e]benzoazepine] | 0.81 | 1 | – | > 10 | – | – | – | –
CN1CCN(C2=Nc3ccccc3/C(=C\C#N)c3cscc32)CC1 [1 (trans), trans-10-cyanomethylene-4-(4-methylpiperazin-1-yl)-thieno[4,3-e]benzoazepine] | 5.1 | 10.9 | 33 | 5.2 | fairly weak | fairly weak | predominates; also recorded: stronger than that of the comparative substances | –
CN1CCN(C2=Nc3cc(Cl)ccc3Nc3ccccc32)CC1 [Clozapine, clozapine, reference compound] | 3.8 | 11.3 | 6.3 | – | – | – | – | –
CN1CCN(C2=Nc3ccccc3/C(=C/C#N)c3cscc32)CC1 [Example 1 (cis), cis-10-cyanomethylene-4-(4-methylpiperazin-1-yl)-thieno[4,3-e]benzoazepine] | 0.35 | 1 | 1 | > 10 | displayed preferentially by the cis isomer | displayed preferentially by the cis isomer | greatly reduced | –
CN1CCN(C2=Nc3c(Cl)cccc3/C(=C\C#N)c3cscc32)CC1 [Example 16, trans-6-chloro-10-cyanomethylene-4(4-methylpiperazin-1-yl)-thieno[4,3-e]benzoazepine] | ~3 | – | – | > 10 | – | – | – | 1
